System: Escherichia coli
Assay: minimum inhibitory concentration (MIC)
Procedure: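 Broth microdilution MIC (Sensititre BOPO7F bovine plate, CLSI methods) of 19 antimicrobials against field isolates of P. multocida, M. haemolytica, H. somni (deep nasopharyngeal swabs) and E. coli, Enterococcus spp. (rectal swabs) from weaned dairy heifers. Incubation 16-24 h at 35 C. MIC is the lowest concentration preventing visible growth. Values with <= or > lie at the tested range limits. Trimethoprim-sulfamethoxazole is given as the trimethoprim component of a 1:19 mixture.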

Measured: minimum inhibitory concentration

CC[C@H]1OC(=O)C[C@@H](O)[C@H](C)[C@@H](O[C@@H]2O[C@H](C)[C@@H](O[C@H]3C[C@@](C)(O)[C@@H](O)[C@H](C)O3)[C@H](N(C)C)[C@H]2O)[C@@H](CC=O)C[C@@H](C)C(=O)/C=C/C(C)=C/[C@@H]1CO[C@@H]1O[C@H](C)[C@@H](O)[C@@H](OC)[C@H]1OC [Tylosin]
> 32 mg/L: isolate (source animal id): 8 | isolate (source animal id): 9 | isolate (source animal id): 10 | isolate (source animal id): 11 | isolate (source animal id): 12 | isolate (source animal id): 13 | isolate (source animal id): 14 | isolate (source animal id): 15 | isolate (source animal id): 16 | isolate (source animal id): 98 | isolate (source animal id): 99 | isolate (source animal id): 100 | isolate (source animal id): 101 | isolate (source animal id): 102 | isolate (source animal id): 103 | isolate (source animal id): 104 | isolate (source animal id): 105 | isolate (source animal id): 106 | isolate (source animal id): 107 | isolate (source animal id): 108 | isolate (source animal id): 109 | isolate (source animal id): 110 | isolate (source animal id): 111 | isolate (source animal id): 112 | isolate (source animal id): 113 | isolate (source animal id): 114 | isolate (source animal id): 115 | isolate (source animal id): 116 | isolate (source animal id): 117 | isolate (source animal id): 118 | isolate (source animal id): 119 | isolate (source animal id): 120 | isolate (source animal id): 121 | isolate (source animal id): 122 | isolate (source animal id): 123 | isolate (source animal id): 124 | isolate (source animal id): 125 | isolate (source animal id): 126 | isolate (source animal id): 127 | isolate (source animal id): 128 | isolate (source animal id): 129 | isolate (source animal id): 130 | isolate (source animal id): 131 | isolate (source animal id): 132 | isolate (source animal id): 133 | isolate (source animal id): 134 | isolate (source animal id): 135 | isolate (source animal id): 136 | isolate (source animal id): 137 | isolate (source animal id): 138 | isolate (source animal id): 139 | isolate (source animal id): 140 | isolate (source animal id): 141 | isolate (source animal id): 142 | isolate (source animal id): 143 | isolate (source animal id): 144 | isolate (source animal id): 145 | isolate (source animal id): 146 | isolate (source animal id): 147 | isolate (source animal id): 148 | isolate (source animal id): 149 | isolate (source animal id): 150 | isolate (source animal id): 151 | isolate (source animal id): 152 | isolate (source animal id): 153 | isolate (source animal id): 154 | isolate (source animal id): 155 | isolate (source animal id): 156 | isolate (source animal id): 157 | isolate (source animal id): 158 | isolate (source animal id): 159 | isolate (source animal id): 160 | isolate (source animal id): 161 | isolate (source animal id): 162 | isolate (source animal id): 163 | isolate (source animal id): 164 | isolate (source animal id): 165 | isolate (source animal id): 166 | isolate (source animal id): 167 | isolate (source animal id): 168 | isolate (source animal id): 169 | isolate (source animal id): 170 | isolate (source animal id): 171 | isolate (source animal id): 172 | isolate (source animal id): 173 | isolate (source animal id): 174 | isolate (source animal id): 175 | isolate (source animal id): 176 | isolate (source animal id): 177 | isolate (source animal id): 178 | isolate (source animal id): 179 | isolate (source animal id): 180 | isolate (source animal id): 181 | isolate (source animal id): 182 | isolate (source animal id): 183 | isolate (source animal id): 184 | isolate (source animal id): 185 | isolate (source animal id): 186 | isolate (source animal id): 187 | isolate (source animal id): 188
